Consider 2 compounds from patent US11414385B2, “Compounds and methods for treating, detecting, and identifying compounds to treat apicomplexan parasitic diseases” (The University of Chicago, priority 2015, dated 2022).

The target in series [1] is T1, Plasmodium falciparum bc1 complex cytochrome c reductase (Pfbc1) (Plasmodium falciparum, UniProt Q02768).
T1 construct: Parasite extract was then prepared by disruption with a sonicating probe; endogenous in cells; host or cells: P. falciparum 3D7 blood-stage parasites, saponin-freed and sonicated (crude parasite extract)
T1 sequence (Q02768 1-376): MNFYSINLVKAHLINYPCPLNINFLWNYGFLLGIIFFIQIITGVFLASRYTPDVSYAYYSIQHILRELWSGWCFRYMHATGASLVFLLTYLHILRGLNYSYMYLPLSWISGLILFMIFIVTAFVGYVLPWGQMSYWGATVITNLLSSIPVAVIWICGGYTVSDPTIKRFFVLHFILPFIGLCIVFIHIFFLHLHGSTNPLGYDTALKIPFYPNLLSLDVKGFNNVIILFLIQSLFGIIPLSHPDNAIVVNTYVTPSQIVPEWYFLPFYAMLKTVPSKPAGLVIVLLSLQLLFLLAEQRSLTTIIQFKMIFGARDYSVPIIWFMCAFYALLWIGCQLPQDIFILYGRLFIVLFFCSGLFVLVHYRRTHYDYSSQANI
The series is described as follows: Pfbc1 native assay (cytochrome c reduction by parasite extract). The format is biochemical. Particulars: compound 1 μM; mean ± s.e.m. of 4 independent experiments. As for the experimental part: Plasmodium falciparum: 3D7 strain was obtained from the Liverpool School of Tropical Medicine. Protease cocktail inhibitor was obtained from Roche. Bradford protein assay dye reagent was obtained from Bio-Rad. All other reagents were obtained from Sigma-Aldrich. Decylubiquinol was produced as per Fisher et al. (Fisher et al. 2004)^21. In brief, 25 mg of decylubiquinone were dissolved in 400 μl of nitrogen-saturated hexane. An equal volume of aqueous 1 M sodium dithionite was added, and the mixture vortexed until colorless. The organic phase containing the decylubiquinol was collected, the solvent was evaporated under N2 and the decylubiquinol finally dissolved in 100 μl of 96% ethanol (acidified with 10 mM HCl). Concentrations of decylubiquinol was determined spectrophotometrically on a Cary 300 Bio UV/visible spectrophotometer (Varian, UK) from absolute spectra, using ε288-320=8.1 mM-1·cm^−1. Decylubiquinol was stored at −80° C. and used within two weeks.
The protocol for the preparation of parasite extract was adapted from Fisher et al. (Fisher et al. 2009)^22. Free parasites were prepared from infected erythrocytes pooled from five T75 flasks, by adding 5 volumes of 0.15% (w/v) saponin in phosphate-buffered saline (137 mM NaCl, 2.7 mM KCl, 1.76 mM K2HPO4, 8.0 mM Na2HPO4, 5.5 mM D-glucose, pH 7.4) for 5 min, followed by three washes by centrifugation in RPMI containing HEPES (25 mM), and a final resuspension in potassium phosphate buffer (50 mM K2HPO4, 50 mM KH2PO4, 2 mM EDTA, pH7.4) containing a protease inhibitor cocktail (Complete Mini; Roche). Parasite extract was then prepared by disruption with a sonicating probe for 5 s, followed by a 1 min rest period on ice to prevent the sample overheating. […] The protein concentration of the parasite extract was determined by Bradford protein assay (Bio-Rad).
Plasmodium falciparum bc1 complex cytochrome c reductase (Pfbc1) activity was measured by monitoring cytochrome c reduction at 550 versus 542 nm using a Cary 300 Bio UV-Visible Spectrophotometer (Varian, UK), using a protocol adapted from Fisher et al. (Fisher et al. 2009)^21-23. […]

Series [2] deals with T. gondii tachyzoites (RH-YFP strain). Put plainly: In vitro challenge assay for Toxoplasma tachyzoites (RH-YFP in HFF, fluorescence). The class given is cell-based, Toxoplasma gondii. As for the experimental part:
Human foreskin fibroblasts (HFF) were cultured on a flat, clear-bottomed, black 96-well plate to 90% to 100% confluence. IMDM (1×, [+] glutamine, [+] 25 mM HEPES, [+] Phenol red, 10% FBS [gibco, Denmark]) was removed from each well and replaced with IMDM-C (1×, [+] glutamine, [+] 25 mM HEPES, [−] Phenol red, 10% FBS)[Gibco, Denmark]). Type I RH parasites expressing Yellow Fluorescent Protein (RH-YFP) were lysed from host cells by double passage through a 27-gauge needle. Parasites were counted and diluted to 32,000/mL in IMDM-C. Fibroblast cultures were infected with 3200 tachyzoites of the Type I RH-YFP strain and returned to incubator at 37° C. for 1-2 hours to allow for infection. Diluted solutions of the compounds were made using IMDM-C, and 20 μl were added to each designated well, with triplicates for each condition. Controls included pyrimethamine/sulfadiazine (current standard of treatment), DMSO only, fibroblast only, and an untreated YFP gradient with 2 fold dilutions of the parasite. Cells were incubated at 37° C. for 72 hours. The plates were read using a fluorimeter (Synergy H4 Hybrid Reader, BioTek) To ascertain the amount of yellow fluorescent protein, in relative fluorescence units (RFU), as a measure of parasite burden after treatment. Compounds were not considered effective or pursued for further analysis if there were no signs of inhibition at 1 μM. Data was collected using Gen5 software and analyzed with Excel.
Protocol adapted from Fomovska, et. al. (18,19). Human foreskin fibroblasts (HFF) were cultured on a flat, clear-bottomed, black 96-well plate to 90% to 100% confluence. IMDM (1×, [+] glutamine, [+] 25 mM HEPES, [+] Phenol red, 10% FBS [gibco, Denmark]) was removed from each well and replaced with IMDM-C (1×, [+] glutamine, [+] 25 mM HEPES, [−] Phenol red, 10% FBS)[gibco, Denmark]). Type I RH parasites expressing Yellow Fluorescent Protein (RH-YFP) were lysed from host cells by double passage through a 27-gauge needle. Parasites were counted and diluted to 32,000/mL in IMDM-C. Fibroblast cultures were infected with 3200 tachyzoites of the Type I RH strain expressing Yellow Fluorescent Protein (RH-YFP) and returned to incubator at 37° C. for 1-2 hours to allow for infection (15). Various concentrations of the compounds were made using IMDM-C, and 20 μl were added to each designated well, with triplicates for each condition. Controls included pyrimethamine/sulfadiazine (current standard of treatment), 0.1% DMSO only, fibroblast only, and an untreated YFP gradient with 2 fold dilutions of the parasite. Cells were incubated at 37° C. for 72 hours. Plates were read using a fluorimeter (Synergy H4 Hybrid Reader, BioTek) to ascertain the amount of yellow fluorescent protein, in relative fluorescence units (RFU), as a measure of parasite burden after treatment. Data was collected using Gen5 software. IC50 was calculated by graphical analysis in Excel.
An initial screening assay of 10 μM, 1 μM, 100 nM, and 10 nM was performed. Compounds were not considered effective or pursued for further analysis if there were no signs of inhibition of tachyzoites at 1 μM. If compounds did appear to be effective at 1 μM, another experiment was conducted to assess effect at 1 μM, 500 nM, 250 nM, 125 nM, 62.5 nM, and 31.25 nM.
Protocol adapted from Fomovska, et. al. (Fomovska A, Huang Q, El Bissati K, Mui E J, Witola W H, Cheng G, et al. Novel N-Benzoyl-2-Hydroxybenzamide Disrupts Unique Parasite Secretory Pathway. Antimicrob Agents Chemother [Internet]. 2012 May [cited 2015 Jul. 8]; 56(5):2666-82; Fomovska A, Wood R D, Mui E, Dubey J P, Ferreira L R, Hickman M R, et al. Salicylanilide inhibitors of Toxoplasma gondii. J Med Chem. 2012 Oct. 11; 55(19):8375-91.). Human foreskin fibroblasts (HFF) were cultured on a flat, clear-bottomed, black 96-well plate to 90% to 100% confluence. […]

The test system of series [3] is T. gondii bradyzoites (EGS strain). The series is described as follows: EGS strain bradyzoite assay (cysts in HFF, dolichos/BAG1 staining). The format is cell-based, Toxoplasma gondii. Particulars: 5 and 10 μM, in HFF. Here is the method:
(§1) HFF cells were grown in IMDM (1×, [+] glutamine, [+] 25 mM HEPES, [+] Phenol red, 10% FBS, [Gibco, Denmark]) on removable, sterile glass disks in the bottom of a clear, flat-bottomed 24-well plate. Cultures were infected with 3×10^4 parasites (EGS strain) per well, in 0.5 mL media and plate was returned to incubator at 37° C. overnight. The following day, the media was removed and clear IMDM and compounds were added to making various concentrations of the drug, to a total volume of 0.5 mL. Two wells were filled with media only, as a control. Plates were returned to the 37° C. incubator for 72 hours.
Efficacy was determined following fixation. Staining was used to determine the numbers of cysts in cultures without and with treatment with the test compounds. Cells were fixed using 4% paraformaldehyde and stained with Fluorescein-labeled Dolichos Biflorus Agglutinin, DAPI, and anti-BAG1, and anti-SAG1. Disks were removed and mounted onto glass slides and visualized using microscopy (Nikon Tl7). Slides were also scanned using a CRi Pannoramic Scan Whole Slide Scanner and viewed using Panoramic Viewer Software.
as §1, with “[gibco,” for “[Gibco,”, “2” for “Two”, “72 hours, and checked once every 24” for “72”, “hours. If tachyzoites were visible in the control before 72 hours, the cells were fixed and stained.” for “hours.”
Cells were fixed using 4% paraformaldehyde and stained with Fluorescein-labeled Dolichos Biflorus Agglutinin, DAPI, and BAG1. Disks were removed and mounted onto glass slides and visualized using microscopy (Nikon Tl7). Slides were scanned using a CRi Pannoramic Scan Whole Slide Scanner and viewed using Panoramic Viewer Software. Effects of the compounds were quantified by counting cysts in the controls and treated cells. Cysts and persisting organisms were counted in a representative field of view and then multiplied by a factor determined by the total area of the disk in order to estimate the number of cysts and organisms in each condition.
HFF cells were grown in IMDM (1×, [+] glutamine, [+] 25 mM HEPES, [+] Phenol red, 10% FBS, [gibco, Denmark]) on removable, sterile glass disks in the bottom of a clear, flat-bottomed 24-well plate. Cultures were infected with 3×10^4 parasites (EGS strain) per well, in 0.5 mL media and plate was returned to incubator at 37° C. overnight. The following day, the media was removed and clear IMDM and compounds were added to making various concentrations of the drug, to a total volume of 0.5 mL. 2 wells were filled with media only, as a control. Plates were returned to the 37° C. incubator for 72 hours, and checked once every 24 hours. If tachyzoites were visible in the control before 72 hours, the cells were fixed and stained. Cells were fixed using 4% paraformaldehyde and stained with Fluorescein-labeled Dolichos Biflorus Agglutinin, DAPI, and BAG1. Disks were removed and mounted onto glass slides and visualized using microscopy (Nikon Tl7). Slides were scanned using a CRi Pannoramic Scan Whole Slide Scanner and viewed using Panoramic Viewer Software. Effects of the compounds were quantified by counting cysts in the controls and treated cells. Cysts and persisting organisms were counted in a representative field of view and then multiplied by a factor determined by the total area of the disk in order to estimate the number of cysts and organisms in each condition. Data was collected using Gen5 software. IC50 was calculated by graphical analysis in Excel.

In the case of `O=c1c2c([nH]c(CO)c1-c1ccc(Oc3ccc(OC(F)(F)F)cc3)cc1)CCCC2` [JAG099, 3(4-(4-Trifluoromethoxyphenoxy)phenyl)-2-(methylhydroxy)-5,6,7,8-tetrahydroquinolin-4(1H)-one], the “Inhibition of cytochrome c reduction (% atovaquone response)” value in series [1] is given as 81.3 ± 6.0 % atovaquone response. Further, in series [2] (Toxoplasma gondii, RH-YFP, read-out: Tachy IC50), the IC50 (commonly the concentration that inhibits the measured activity by half) was determined as 0.32 µM.
As to “Vivoporter-PMOs: "Vivo-PMO (Vivo porter linked to morpholinos) to knock down cytochrome b"; sequence 5′ AGTGTTCTCGAAACCATGCTAACAC 3′ (SEQ ID NO: 5) (all phosphorodiamidate morpholino (PMO); Vivo-Porter delivery moiety attached to morpholino, further chemistry not fully specified; listed as Homo sapiens) [reference compound]”, the “effect on size and number of EGS cysts” value in series [3] is “small effect”. For the same compound, the “effect on tachyzoite replication” value in series [2] (5 and 10 μM, vs off target control) is given as “modest effect”.
